In ChEMBL document CHEMBL1201862, “PubChem BioAssay data set” (2004):
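Grown in 96-well plates, cells were treated for 48 hours with each compound at five concentrations. Insufficient inhibition: endpoint recorded as highest concentration tested. The concentration for 50% growth inhibition is given as GI50.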 The source made the active and inactive calls. Cut-off read from the data, not from the text of the source: active = GI50 up to about 1.1 µM and inactive = higher.

What was measured:
Assay in all cases: NCI anticancer screen, dose series, 48 h
[1] = test system: A549
[2] = test system: CCRF-CEM
[3] = test system: COLO 205
[4] = test system: HCC 2998
[5] = test system: HL-60
[6] = test system: Hs-578T
[7] = test system: IGROV-1
[8] = test system: MCF7
[9] = test system: Malme-3M
[10] = test system: NCI/ADR-RES
[11] = test system: OVCAR-4
[12] = test system: OVCAR-8
[13] = test system: PC-3
[14] = test system: RPMI-8226
[15] = test system: SF-295
[16] = test system: SK-MEL-2
[17] = test system: TK-10
[18] = test system: UACC-257
[19] = test system: UO-31
[20] = test system: SK-OV-3

SMILES | GI50 [1] | GI50 [2] | GI50 [3] | GI50 [4] | GI50 [5] | GI50 [6] | GI50 [7] | GI50 [8] | GI50 [9] | GI50 [10] | GI50 [11] | GI50 [12] | GI50 [13] | GI50 [14] | GI50 [15] | GI50 [16] | GI50 [17] | GI50 [18] | GI50 [19] | GI50 [20]
COc1c2c(cc3oc(C)cc(=O)c13)OC(=N)C(C(N)=O)C2CC(=O)c1ccc(N)cc1 (stereo not drawn) | > 100 µM (inactive) | > 100 µM (inactive) | > 100 µM (inactive) | > 100 µM (inactive) | > 100 µM (inactive) | > 100 µM (inactive) | > 100 µM (inactive) | > 100 µM (inactive) | > 100 µM (inactive) | > 100 µM (inactive) | > 100 µM (inactive) | > 100 µM (inactive) | > 100 µM (inactive) | > 100 µM (inactive) | > 100 µM (inactive) | > 100 µM (inactive) | > 100 µM (inactive) | > 100 µM (inactive) | > 100 µM (inactive) | 
O=C1c2ccccc2/C(=N\c2ccc3ccccc3c2)C1(C1=C(c2ccccc2)/C(=N/c2ccc3ccccc3c2)c2ccccc21)c1ccccc1 (stereo not drawn) | 11.1 µM (inactive) | 11.2 µM (inactive) | 6.34 µM (inactive) | 11.5 µM (inactive) | 4.5 µM (inactive) | 23.2 µM (inactive) | 6.34 µM (inactive) | 4.05 µM (inactive) |  | 6.01 µM (inactive) | 5.37 µM (inactive) | 6.89 µM (inactive) | 4.41 µM (inactive) | 3.64 µM (inactive) | 10.9 µM (inactive) | 11.9 µM (inactive) | 45.5 µM (inactive) | 5.73 µM (inactive) | 4.65 µM (inactive) | 22.1 µM (inactive)
O=C1C2CCCCC2C(=O)N1n1c(-c2ccccc2)n[nH]c1=O (stereo not drawn) | > 100 µM (inactive) | > 100 µM (inactive) | > 100 µM (inactive) | > 100 µM (inactive) |  | > 100 µM (inactive) | > 100 µM (inactive) | > 100 µM (inactive) | > 100 µM (inactive) | > 100 µM (inactive) | > 100 µM (inactive) | > 100 µM (inactive) | > 100 µM (inactive) | > 100 µM (inactive) | > 100 µM (inactive) | > 100 µM (inactive) | > 100 µM (inactive) | > 100 µM (inactive) | > 100 µM (inactive) | > 100 µM (inactive)
O=C1c2ccccc2S(=O)(=O)c2cc(-c3nn[nH]n3)ccc21 [DOXANTRAZOLE] | > 100 µM (inactive) | > 100 µM (inactive) | > 100 µM (inactive) | > 100 µM (inactive) | > 100 µM (inactive) | > 100 µM (inactive) | > 95.3 µM (inactive) | > 100 µM (inactive) | > 100 µM (inactive) | > 100 µM (inactive) | > 100 µM (inactive) | > 100 µM (inactive) | > 100 µM (inactive) |  | > 100 µM (inactive) | > 100 µM (inactive) | > 100 µM (inactive) | > 100 µM (inactive) | > 100 µM (inactive) | > 100 µM (inactive)
O=C(Nc1noc(-c2ccccc2)n1)c1ccccc1CNc1noc(-c2ccccc2)n1 | > 100 µM (inactive) | > 100 µM (inactive) | > 100 µM (inactive) | > 100 µM (inactive) | > 100 µM (inactive) | > 100 µM (inactive) | > 100 µM (inactive) | > 100 µM (inactive) | > 100 µM (inactive) | > 100 µM (inactive) | > 100 µM (inactive) | > 100 µM (inactive) | > 100 µM (inactive) | > 100 µM (inactive) | > 100 µM (inactive) |  | > 100 µM (inactive) | > 100 µM (inactive) | > 100 µM (inactive) | > 100 µM (inactive)
C/C(=N\NC(N)=O)C(CN(C)C)C(c1ccccc1)c1c(O)c2ccccc2oc1=O (stereo not drawn) | > 100 µM (inactive) | 90.8 µM (inactive) | 36.4 µM (inactive) | > 100 µM (inactive) | 38.4 µM (inactive) | > 100 µM (inactive) | > 100 µM (inactive) | > 100 µM (inactive) | 42.4 µM (inactive) | > 100 µM (inactive) | > 100 µM (inactive) | > 100 µM (inactive) | > 100 µM (inactive) | 61.5 µM (inactive) | > 100 µM (inactive) | > 100 µM (inactive) | > 100 µM (inactive) | > 100 µM (inactive) | > 100 µM (inactive) | 
c1ccc(NN=C(c2ccccn2)c2ccccn2)nc1 | 0.384 µM (active) | 0.0224 µM (active) | < 0.01 µM (active) | 2.23 µM (inactive) |  | 4.82 µM (inactive) | 0.0153 µM (active) | < 0.0245 µM (active) | 0.0653 µM (active) | 0.157 µM (active) | 0.213 µM (active) | 0.0384 µM (active) | 0.191 µM (active) | 0.211 µM (active) | 0.423 µM (active) | 0.49 µM (active) | 0.357 µM (active) | 0.187 µM (active) | 0.0267 µM (active) | 0.369 µM (active)
